“Also recorded” adds a separate entry of the source. Like-named read-outs stand apart in the source and are kept apart here.
Tests used:
[1] = system: human hepatocytes-THLE-2 cells; test: Glucose uptake assay, THLE-2 cells; assay type: cell-based
Protocol: FIGS. 13-16 show results for glucose update assays in THLE-2 cells (ATCC, cat. No. CRL-2706) when treated with compound I-11 (FIG. 13), compound I-7 (FIG. 14), MK-8722 (FIG. 15), and PF-06409577 (FIG. 16). The THLE-2 cells were starved for 3 hours in high glucose DMEM without FBS, treated with the components noted above in DMEM without FBS/glucose for 1 hour, and glucose uptake was detected using a glucose uptake kit (Promega). The bars show (from left to right) concentrations of 100 μM, 33 μM, 11 μM, 3.7 μM, 1.23 μM, 0.41 μM, 0.14 μM, 0.045 μM, 0.015 μM, 0.005 μM, 0 μM, and insulin.
Human skeletal myoblasts were obtained (Thermofisher; BYU) and cultured in DMEM/F12 medium with 10% FBS. For differentiation, 2% horse serum low glucose DMEM medium was employed for 72 hours. Human cardiomyocytes cells (HCM cells; Promocell) were cultured in myocyte growth medium (Promocell). Human preadipocyte HWP-c cells (Promocell) were obtained from upper arm of diabetic II donor. Human preadipocyte HWP-c cells (Promocell) were obtained from abdomen of diabetic II donor. For differentiating human preadipocytes, cells were cultured in preadipocyte growth medium to total confluency stage. The growth medium was replaced with preadipocyte differentiation medium for 72 hours, then changed to PromoCell adipocyte nutrition medium to complete the differentiation process. THLE-2 cells were cultured in BEGM from Lonza/Clonetics Corporation, Walkersville, MD 21793 (BEGM Bullet Kit; CC3170). HepG2, L6 and C2Cl2 cells were cultured in EMEM medium.
After differentiation myoblasts, preadipocyte cells were starved by removing the medium and adding 100 μL DMEM without serum. The medium was then replaced with 100 μL DMEM±1 μM insulin at indicated concentration of representative compounds without serum or glucose. The cells were then incubated for 1 hour at 37° C. in 5% CO2. The cells were then removed from the medium and 50 μL of 0.1 mM 2DG in PBS was added. Cells were incubated for 30 minutes at 25° C. 25 μL of Stop Buffer was added and samples were mixed. 25 μL of Neutralization Buffer was then added and mixed. 100 μL of 2DG6P Detection Reagent was then added and mixed. Samples were then incubated for 1 hour at 25° C. Luminescence was then recorded with 0.3-1 second integration on a luminometer.

in vivo = assay type: in vivo; details: dog
Protocol: A total of 3 animals were segregated in to one group and each animal received oral dose followed by intravenous infusion (15 minutes) as a cross over design with 7 days of no dose interval between periods. […] Similarly, in period 2 after 7 days of no dose interval, animals were received intravenous infusion for 15 min at a dose of 1 mg/kg via saphenous vein at a dose volume of 1 mL/kg, each dog was observed after administration of the test item for presence or absence of clinical signs.
A total of 11 time points for oral and 12 blood samples for IV per each animal were collected, approximately 1 mL were collected from each dog in pre-labeled Eppendorf tubes containing 20 μL/mL of 200 mM K2 EDTA. Blood was withdrawn at scheduled time points via cephalic vein in pre-labelled Eppendorf tubes. The pre-dose blood sample was collected before to drug administration. Post dose samples were collected within stipulated time. The blood samples were kept on crushed ice to maintain the temperature until centrifugation. Plasma was separated and stored under −70° C. […] The PK parameters were evaluated using Phoenix WinNonlin® Ent-Version 8.3 by non-compartmental analysis.

high fat diet mice = details: for % Body (percentage change in body weight): up to day 36
[2] = system: AMPK signal pathway in C2C12 cells; test: Western blot assay, C2C12 cells
Protocol: Samples for immunoblotting studies were prepared for electrophoresis by adding in a final concentration of 1× Laemmli loading buffer (supplemented with 5% 2-mercaptoethanol). Samples were then electrophorized by SDS-PAGE (4-15% or 4-20% Criterion TGX Precast gel, Bio-Rad) at a constant voltage within the range of 140V. Proteins were transferred to a nitrocellulose membrane (Bio-Rad) using the Trans-Blot Turbo transfer system (Bio-Rad). Membranes were blocked with 5% BSA in TBST for a minimum of 1 hour at room temperature before incubating with the following primary antibodies: • Phospho-AMPKα (Thr172) (40H9) Rabbit mAb (CST, cat no: 2535S), • AMPKα Antibody (CST, cat no: 2532S) • Phospho-Raptor (Ser792) Antibody (CST, cat no: 2083S) • Raptor (24C12) Rabbit mAb (CST, cat no: 2280S) • Phospho-Acetyl-CoA Carboxylase (Ser79) Antibody (CST, cat no: 3661S) • Acetyl-CoA Carboxylase Antibody (CST, cat no: 3662S) • AMPKα2 Antibody (CST, cat no: 2757S) • AMPKβ1 antibody (CST, cat no: 12063) • AMPKβ2 Antibody (CST, CST, cat no: 4148S) • AMPKγ3 Antibody (CST, cat no: 2550S). […]
After differentiation of cells (e.g., HSKM, C2C12, L6) for 5 days, medium was changed to DHEM without FBS and glucose for starving cells for 2 hours. […] The resultant reaction mixture was then assayed and semi-quantitative histogram analysis of Western Blotting (signal value) was used to determine results.

HCM cells = test: CyQUANT Cytotoxicity Assay (G6PD assay), HCM; details: treated 2 hours
HSKM cells = test: CyQUANT Cytotoxicity Assay (G6PD assay), HSKM; details: treated 2 hours
Protocol: The CyQUANT Cytotoxicity Assay (Thermofisher, cat no: V23111) was used to detect damaged and dying cells by means of their release of glucose 6-phosphate dehydrogenase into the surrounding medium. Cells were plated in a 96-well microplate (500-25,000 cells/well in a 50-μL volume). Three sets of triplicate wells were reserved for the following controls: a no-cell control (medium alone), untreated cells, and completely lysed cells. Cells were starved for 2 h and then add the indicated AMPK activators (50 μL) to the experimental wells and incubate for 2 hours, 50 μL of 2× reaction mixture was added to each well. 1 μL of 100× Cell-Lysis buffer was added to the completely lysed control wells only. Cells were incubated at 37° C. for 10-30 minutes. Fluorescence was measured (excitation 530-560 nm, emission 580-600 nm) at 5-minute intervals to determine the optimal time point for the experiment.
To text toxicity, after differentiation of human skeletal muscle cells, HSKM were starved with DMEM medium without FBS/glucose for 2 hours. […] The resultant reaction mixture was then assayed for glucose 6-phosphate dehydrogenase release. An untreated control sample and completely lysed cells were detected for comparison. The fluorescence was measured in a microplate reader (excitation/emission ˜530/590 nm).

HepG2 cells = test: CyQUANT Cytotoxicity Assay (G6PD assay), HepG2; details: treated 2 hours

## O=c1[nH]c(-c2c[nH]c3cc(F)c(-c4ccc(C5(O)CCC5)cc4)c(F)c23)no1 [Compound I-11, 3-(4,6-difluoro-5-(4-(1-hydroxycyclobutyl)phenyl)-1H-indol-3-yl)-1,2,4-oxadiazol-5(4H)-one]
[1]
  glucose uptake: induced glucose uptake; also recorded: dosage-dependent manner
In vivo; 5 mg/kg oral
  systemic exposure, oral administration: low systemic exposure
In vivo; male, Beagle, plasma, 5 mg/kg oral compared with intravenous infusion (1 mg/kg)
  bioavailability: 5.27 ± 2.94%
High fat diet mice; 30 mg/kg p.o. QD, Day 14
  % fat mass: 53.75 ± 0.88%
  area (cm^2; DEXA scan): 13.26 ± 0.24 cm^2
  bone mineral content (BMC): 1.04 ± 0.02
  bone mineral density (BMD): 0.08 ± 0.00
  fat mass (gm): 27.97 ± 0.67 gm
  lean+bone mineral content (BMC-gm): 24.11 ± 0.71 gm
  total mass (gm): 52.05 ± 1.04 gm
High fat diet mice; 30 mg/kg p.o. QD, Day −3
  % fat mass: 46.39 ± 0.83%
  area (cm^2; DEXA scan): 12.61 ± 0.23 cm^2
  bone mineral content (BMC): 1.01 ± 0.01
  bone mineral density (BMD): 0.08 ± 0.00
  fat mass (gm): 23.20 ± 0.60 gm
  lean+bone mineral content (BMC-gm): 26.78 ± 0.50 gm
  total mass (gm): 49.96 ± 0.75 gm
High fat diet mice; 30 mg/kg p.o. QD
  % Body (percentage change in body weight): 1.40 ± 0.21%
High fat diet mice; 50 mg/kg p.o. QD, Day 14
  % fat mass: 50.05 ± 1.02%
  area (cm^2; DEXA scan): 12.93 ± 0.23 cm^2
  bone mineral content (BMC): 1.04 ± 0.02
  bone mineral density (BMD): 0.08 ± 0.00
  fat mass (gm): 25.95 ± 0.84 gm
  lean+bone mineral content (BMC-gm): 25.83 ± 0.49 gm
  total mass (gm): 51.78 ± 0.85 gm
High fat diet mice; 50 mg/kg p.o. QD, Day −3
  % fat mass: 46.37 ± 2.15%
  area (cm^2; DEXA scan): 12.56 ± 0.30 cm^2
  bone mineral content (BMC): 1.01 ± 0.02
  bone mineral density (BMD): 0.08 ± 0.00
  fat mass (gm): 23.44 ± 1.29 gm
  lean+bone mineral content (BMC-gm): 26.97 ± 1.03 gm
  total mass (gm): 50.40 ± 0.80 gm
High fat diet mice; 50 mg/kg p.o. QD
  % Body (percentage change in body weight): −0.34 ± 0.73%
High fat diet mice; 30 and 50 mg/kg p.o. QD for 36 days
  clinical signs, morbidity, mortality: no observations of clinical signs or morbidity, and no mortality
[2]
  pAMPK/pACC/AMPKα2β1β2γ3 expression: also induce
HCM cells
  toxicity compared to reference compounds MK-8722 and PF-06409577 (G6PD release): less toxicity
HSKM cells
  toxicity compared to reference compounds MK-8722 and PF-06409577 (G6PD release): less toxicity
HepG2 cells
  toxicity compared to reference compounds MK-8722 and PF-06409577 (G6PD release): less toxicity
